Reference: patent US9950983B2, “Tricyclic compounds and process for preparation thereof” (Council of Scientific and Industrial Research, priority 2014, dated 2018)

How the values were obtained:
[1] = system: Formosan subterranean termite (Coptotermes formosanus); conditions: Formosan subterranean termites; Zhu et al., J Chem Ecol 2001; cited from earlier work
[2] = system: Ae. aegypti females mosquitoes; assay: Mosquito repellence bioassay (protection period, time until the first bite); assay type: in vivo; conditions: time until first confirmed bite; for Protection period in hrs @dose 0.25 mg/cm^2: dose 0.25 mg/cm^2 on muslin cloth screen over human volunteer's hand; for Protection period in hrs @dose 0.50 mg/cm^2: dose 0.50 mg/cm^2 on muslin cloth screen over human volunteer's hand
Description: Protocol Adopted for the Mosquito Repellence Bioassay
Mosquito repellence activity was assessed on the basis of protection period (hr) offered by various analogues of Nootkatone against Mosquito bites. The protection period was measured on the basis of the concept “time until the first bite” pioneered by Granette (Comparison of mosquito repellency test under laboratory and field conditions. Granett, P. Proc Ann Meet NJ Mosq Assoc, 1938, vol. 25, 51,). Repellence tests were carried out against 3-5 days old, blood starved but sucrose fed (0.5M solution), Ae. aegypti females mosquitoes, drawn from well-established laboratory colony maintained at 27±1° C. Temperatureand 70±5% Relative humidity. The light intensity was regulated at 300-500 lux for testing against laboratory, colonized Ae. aegypti, a day biting mosquito. Human volunteer's hand covered with polythene disposable gloves was introduced in the cage containing about 200 hungry mosquitoes. Mosquitoes were allowed to bite on the back of the hand through muslin screen stuck over a small window (2 cm×2 cm) cutout in the polythene bag. Various analogues of Nootkatone were loaded on the muslin cloth screen instead of direct skin application so as to avoid the potential risk involved in the evaluation of natural products of unknown mammalian toxicity. All the test solutions were made in Analar grade Acetone The muslin cloth screen was first treated with the analogue taking two doses @0.25 mg/cm^2 and 0.5 mg/cm^2 and the solvent was evaporated before use. Control muslin screen was treated with solvent alone. After introduction of the hand covered with the polythene glove with the treated muslin screen into the mosquito cage, number of mosquito bites received in subsequent 5 minutes were counted. In the event of no bites in the initial 5 minutes exposure, the test hand was exposed repeatedly after every consecutive ½ hr for 5 minutes test till the time a confirmed bite was received. Number of hours before the receipt of a confirmed bite (Techniques for the evaluation of insect repellents. A critical review (Schreck, C. E, Ann Rev Entomol, 1977, vol 22, 101) represented the protection period offered by the test compound. In control rate of mosquito bite was 10-12 bites/min. Above test were repeated with both male and female human volunteers using different mosquito batches. All the tests were carried out at 27±1° C. temperature between 9.00-17.00 hrs.

Row | SMILES | lowest effective concentration tested [1] | Protection period in hrs @dose 0.25 mg/cm^2 [2] | Protection period in hrs @dose 0.50 mg/cm^2 [2]
1 | C=C(C)[C@@H]1CCC2=CC(=O)C[C@@H](C)[C@]2(C)C1 [nootkatone] | 10 micrograms/g substrate |  | 
2 | C=C(C)[C@@H]1CCC2=CC(=O)C[C@@H](C)[C@]2(C)C1 (racemic) [Recemic nootkatone, nootkatone, reference compound] |  | 3.12 ± 0.07 h | 5.06 ± 0.06 h
3 | CC1(C)[C@@H]2CC3=CC(=O)CCC3[C@@H]21 (stereo partly drawn) [1c, (1aR,6aR)-1,1-Dimethyl-1a,1b,2,3,6,6a-hexahydrocyclopropa[a]-inden-4(1H)-one] |  | 3.60 ± 0.0791 h | 5.30 ± 0.088 h
4 | CCC[C@H]1CC(=O)C=C2C[C@@H]3[C@H]([C@@H]21)C3(C)C [1g, (1aR,1bS,6aR)-1,1-Dimethyl-2-propyl-1a,1b,2,3,6,6a-hexahydrocyclo propa[a]inden-4(1H)-one] |  | 1.8 ± 0.1490 h | 1.99 ± 0.1137 h
5 | CC1=C2C[C@@H]3[C@H](C2CCC1=O)C3(C)C (stereo partly drawn) [1d, (1aR,6aR)-1,1,5-trimethyl-1a,1b,2,3,6,6a hexahydrocyclopropa[a]inden-4(1H)-one] |  | 5.64 ± 0.1984 h | 6.29 ± 0.0844 h
6 | C[C@H]1CC(=O)C=C2C[C@@H]3[C@H]([C@@H]21)C3(C)C [1e, (1aR,1bS,6aR)-1,1,2-Trimethyl-1a,1b,2,3,6,6a-hexahydrocyclo propa[a]inden-4(1H)-one] |  | 5.22 ± 0.0720 h | 6.46 ± 0.1507 h
7 | CC1(C)CC(=O)C=C2C[C@@H]3[C@H]([C@@H]21)C3(C)C [1h, (1aR,1bR,6aR)-1,1,2,2-Tetramethyl-1a,1b,2,3,6,6a-hexahydro cyclo propa[a]inden-4(1H)-one] |  | 2.19 ± 0.0716 h | 2.38 ± 0.07567 h
8 | CC[C@H]1CC(=O)C=C2C[C@@H]3[C@H]([C@@H]21)C3(C)C [1f, (1aR,1bS,6aR)-2-Ethyl-1,1-dimethyl-1a,1b,2,3,6,6a hexahydrocyclo propa[a]inden-4(1H)-one] |  | 1.53 ± 0.1223 h | 3.48 ± 0.1396 h
9 | C[C@@H]1CC(=O)C=C2C(=O)[C@@H]3[C@@H](C3(C)C)[C@]21C (racemic) [Recemic nardoaristolone B, (1aS,1bR,2R,6aR)-1,1,1b,2-Tetramethyl-1,1a,1b,2,3,6a-hexahydrocyclopropa[a]indene-4,6-dione] |  | 3.30 ± 0.0708 h | 5.63 ± 0.1778 h
10 | C=C(C)[C@@H]1CCC2=CC(=O)C[C@@H](C)[C@]2(C)C1 [Natural nootkatone, nootkatone, reference compound] |  | 5.58 ± 0.171 h | >7 h
11 | CCOC(=O)[C@H]1[C@@H]2C(=O)C3=CC(=O)C[C@@H](C)[C@]3(C)[C@H]12 [1b, Ethyl(1R,1aS,1bR,2R,6aR)-1b,2-dimethyl-4,6-dioxo-1,1a,1b,2,3,4,6,6a-octahydrocyclopropa[a]indene-1-carboxylate] |  | 1.23 ± 0.040 h | 1.40 ± 0.0549 h
12 | C[C@@H]1CC(=O)C=C2C(=O)[C@H]3[C@H](C3(C)C)[C@]21C [1a, (1aR,1bR,2R,6aS)-1,1,1b,2-Tetramethyl-1,1a,1b,2,3,6a-hexahydro-cyclopropa[a]indene-4,6-dione] |  | 4.13 ± 0.0626 h | 5.35 ± 0.0868 h
